Reference: US20050020544A1, “Bicyclic CB2 cannabinoid receptor ligands” (priority 2002, published 2005)

Experiments:
Format in all cases: in vivo, mouse
C57/BL male mice = assay: MPTP model for Parkinson's disease, TH immunoreactivity in SNpc; settings: 20 mg/kg i.p., once before first MPTP, day 7
Experimental: The mice (C57/BL male mice, average weight 30 g, Harlan, Israel) were administered i.p. with 4 injections of MPTP (Sigma, USA) (20 mg/kg, 5 ml/kg) in saline (Teva Medical Israel) at 2 hours interval on day 1. The treatment groups, including: (a) Saline, untreated, (b) MPTP, untreated, (c) Vehicle (1:20of CREMOPHOR EL®:ethanol), 5 ml/kg i.p., and (d) test compounds, were administered i.p. once just before the first MPTP administration. Seven days following the MPTP treatment the animals were sacrificed (by i.p. administration of pentobarbitone sodium CTS Israel 100 mg/kg) and their brains removed for tyrosine hydroxylase (TH) detection using immunohistochemistry technique.
Brains were fixed by cardiac perfusion with 4% Paraformaldehyde followed by immersion of the brain in the same fixative for at least 72 hours. Then brains were washed with PBS and transferred to 30% sucrose in PBS until they sank. After the brains sink in the sucrose, they were frozen using the cryostat special fast freezing (−60° C.). […] Quantitative analysis was performed by counting of immunoreactive (IR) cells at the widest dimension of the SNpc lateral to the roots of the third cranial nerve separating medial and lateral SN at the level of interpreduncular nucleus. The amount of the labeling at the striatum level was evaluated using computerized image analysis system.
All data are expressed as mean±SD. […]

Male ICR mice = assay: Visceral pain induced by i.p. acetic acid
Experimental: Male ICR mice (25 g average body weight, Harlan, Israel) were pretreated by i.v. injection at volume dose of 5 ml/kg of vehicle, control and test compounds at various doses. Each treatment group was composed of at least 4 animals. Fifteen minutes later, the mice were injected i.p. with 10 ml/kg of 0.6% acetic acid and the number of withers is counted over a period of 5 minutes, starting 5 minutes after the acetic acid administration. The results are expressed as mean number of withers±SD.

ICR male mice = assay: Tail flick model for acute peripheral pain, i.p.
Method in brief: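 Male ICR mice (≥6/group) dosed i.p. at 0.1–10 mg/kg in Cremophor EL:ethanol diluted 1:20 in saline; morphine HCl 5 mg/kg as positive control. Tail illuminated 2 cm from tip at set times post-dose; latency (s) recorded in duplicate. Read-outs: latency and % animals showing analgesia, mean±SE; ANOVA/Tukey or Fisher's exact test, p<0.05.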

[1] = 10 mg/kg i.p., 330 minutes (five and a half hours)

SMILES | SN dopaminergic (TH-IR) cells rescued from MPTP toxicity (C57/BL male mice) | inhibition of number of withers as compared to vehicle (Male ICR mice; 0.5 mg/kg i.v.) | number of withers (Male ICR mice; 0.5 mg/kg i.v., mean±SD) | inhibition of number of withers as compared to vehicle (Male ICR mice; 1 mg/kg i.v.) | number of withers (Male ICR mice; 1 mg/kg i.v., mean±SD) | inhibition of number of withers as compared to vehicle (Male ICR mice; 2 mg/kg i.v.) | number of withers (Male ICR mice; 2 mg/kg i.v.) | latency time (ICR male mice; 4 mg/kg i.p., thirty minutes) | % animals showing analgesia (ICR male mice; 10 mg/kg i.p., 90 minutes) | latency time (ICR male mice; 10 mg/kg i.p., 90 minutes) | % animals showing increased analgesia (ICR male mice; [1]) | latency time (ICR male mice; [1]) | % animals showing increased analgesia (ICR male mice; 10 mg/kg i.p., initiation of the study) | analgesia (ICR male mice; 8 and 10 mg/kg i.p., 330 minutes) | maximal latency (ICR male mice; maximal tested dose 10 mg/kg i.p., 30 minutes) | % animals with increased resistance to pain (ICR male mice; 10 mg/kg i.p., all along the duration of the study (5.5 hours)) | analgesia compared with 5 mg/kg morphine (ICR male mice; 4 and 8 mg/kg i.p.)
CCCCCCC(C)(C)c1cc(OC)c(C2C=C(CO)C3CC2C3(C)C)c(OC)c1 (single isomer, unassigned; (+)) [HU-308, (+) {4-[4-(1,1-dimethylheptyl)-2,6-dimethoxy-phenyl]-6,6-dimethyl-bicyclo[3.1.1]hept-2-en-2-yl}-methanol, reference compound] | about 43% | – | – | – | – | – | – | – | – | – | – | – | – | – | – | – | –
CCCCCCC(C)(C)c1cc(O)c(C2CC(=O)C3CC2C3(C)C)c(O)c1 (single isomer, unassigned; (-)) [Compound A, (−)-4-[4-(1,1-Dimethyl-heptyl)2,6-dihydroxy-phenyl]-6,6-dimethyl-bicyclo[3.1.1)heptan-2-one] | – | 64% | 7.9±4.8 | 95% | 1.2±0.6 | 100% | no withers at all | 4.9 s | more than 80% | 7.3 s | 80% | 4.9 s | 100% | Significant analgesia was still evident | 7.1 s | – | –
CCCCCCC(C)(C)c1cc(O)c([C@H]2CC(=O)[C@H]3C[C@@H]2C3(C)C)c(OC(=O)CCC(=O)O)c1 [Compound R, (−)-4-{4-[1,1-Dimethyl-heptyl]-2-succinate-6-hydroxy-phenyl}-6,6-dimethyl-bicyclo[3.1.1]heptan-2-one] | – | – | – | – | – | – | – | – | 100% | 8.5 s | 100% | 6.8 s | – | – | – | 100% | still twice better than 5 mg/kg morphine in generating analgesia
